The record followed here is US7151096.

Each structure is given as a SMILES string. Where two headings read alike, the source gives them in different places.

Regarding `c1cc2cc(c1)OCCCNc1ncccc1-c1ccnc(n1)N2`, the ring closure, yield of all isomers (from Oc1cccc(Nc2nccc(-c3cccnc3NCCCBr)n2)c1, ether bond, K2CO3, acetone, 19.3 mM, 56.0 °C, 6.0 h, 3 steps) was 34.6%.
For `c1cc2cc(c1)OCCCNc1cc(ccn1)-c1ccnc(n1)N2`, the ring closure, yield of all isomers (from Oc1cccc(Nc2nccc(-c3ccnc(NCCCBr)c3)n2)c1, ether bond, K2CO3, acetone, 6.5 mM, 56.0 °C, 3.0 h, 2 steps) came to 26.5%.
In turn, `O=C1Cc2cccc(c2)Nc2nccc(n2)-c2ccnc(c2)NCCCN1` had a ring closure, yield of all isomers (from NCCCNc1cc(-c2ccnc(Nc3cccc(CC(=O)O)c3)n2)ccn1, amide bond, HATU, DMF, 1.52 mM, 0.0 °C, 3.0 h) of 74.2%.
